Results published in PubChem BioAssay (NCI).
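Assay format: 96-well plates, 48-hour exposure. Abbreviation: GI50, concentration required for 50% inhibition of growth. Definition used: TGI = concentration required for complete inhibition of growth.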

Legend:
Experiment in all cases: growth of human tumour cells (NCI), 48 h
TK-10 renal = test system: TK-10 renal
DU-145 prostate = test system: DU-145 prostate
SNB-75 CNS = test system: SNB-75 CNS
ACHN renal = test system: ACHN renal
LOX IMVI melanoma = test system: LOX IMVI melanoma
M14 melanoma = test system: M14 melanoma
UACC-62 melanoma = test system: UACC-62 melanoma
RXF 393 renal = test system: RXF 393 renal

| SMILES | GI50 (TK-10 renal) | TGI (TK-10 renal) | GI50 (DU-145 prostate) | TGI (DU-145 prostate) | GI50 (SNB-75 CNS) | TGI (SNB-75 CNS) | GI50 (ACHN renal) | TGI (ACHN renal) | GI50 (LOX IMVI melanoma) | TGI (LOX IMVI melanoma) | GI50 (M14 melanoma) | TGI (M14 melanoma) | GI50 (UACC-62 melanoma) | TGI (UACC-62 melanoma) | GI50 (RXF 393 renal) | TGI (RXF 393 renal) |
| --- | --- | --- | --- | --- | --- | --- | --- | --- | --- | --- | --- | --- | --- | --- | --- | --- |
| NCCCN1CCN(CCCNc2nc3ccccc3c3[nH]c4ccccc4c23)CC1 | 0.81 µM | 11.1 µM | 0.299 µM | 7.83 µM | 0.691 µM | 1.99 µM | 0.378 µM | 3.75 µM | 0.409 µM | 1.81 µM | 1.27 µM | 2.76 µM | 0.541 µM | 1.1 µM | 0.429 µM | 1.31 µM |
| COC(=O)[C@]12CC[C@@H](C)[C@H](C)[C@@H]1C1=CC[C@@H]3[C@@]4(C)C(C=O)=C[C@@](C)(COS(C)(=O)=O)C4[C@H](O)C[C@@]3(C)[C@]1(C)CC2 (some centres undefined) | 2 µM | 4.91 µM | 1.69 µM | 3.41 µM | 1.51 µM | 8.86 µM | 1.18 µM | 2.56 µM | 1.47 µM | 2.81 µM | 1.68 µM | 4.5 µM | 1.66 µM | 3.96 µM | 1.53 µM | 2.9 µM |
| CCOc1nccc2c1nc(-c1nonc1N)n2CC | > 25 µM | > 25 µM | > 25 µM | > 25 µM | 16.2 µM | > 25 µM | > 25 µM | > 25 µM | > 25 µM | > 25 µM | > 25 µM | > 25 µM | > 25 µM | > 25 µM | > 25 µM | > 25 µM |
| CC(C)C[C@H](NC(=O)CCn1ccc2ncccc2c1=O)B(O)O | 6.44 µM | 61.8 µM | 19.6 µM | > 100 µM | 14.5 µM | 47.5 µM | 9.45 µM | > 100 µM | 4.53 µM | 18.7 µM | 5.45 µM | > 47.3 µM | 5.93 µM | 61.7 µM | 3.54 µM | 15.2 µM |
| COc1ccc2c(c1)c(-c1ccc(-c3cn(C)c4ccc(OC)cc34)[nH]1)cn2C | 3.56 µM | 10.7 µM | 10.6 µM | 31.1 µM | 2.25 µM | 6.26 µM | 1.91 µM | 3.54 µM | 2.03 µM | 4.39 µM | 3.97 µM | 20.3 µM | 2.14 µM | 6.55 µM | 1.4 µM | 3.52 µM |
| COc1ccc(-c2cc(-c3cccc(NS(C)(=O)=O)c3)nc(N)c2C#N)cc1 | 0.278 µM | > 47.5 µM | 0.164 µM | 8.82 µM | 0.0316 µM | 0.769 µM | 0.0789 µM | 43.9 µM | 0.0743 µM | > 37.5 µM | 0.0808 µM | 10.7 µM | 0.0459 µM | 15.9 µM | 0.0506 µM | 0.44 µM |
| O=C(COc1cccc(/C=C2\Oc3ccc4ccccc4c3C2=O)c1)c1ccc(Cl)cc1 | > 100 µM | > 100 µM | 39.6 µM | > 100 µM | 29.4 µM | 99.4 µM | > 100 µM | > 100 µM | 8.7 µM | 21.9 µM | 18.1 µM | 43 µM | 81.9 µM | > 100 µM | 25 µM | 61.6 µM |
| N#C/C(=C\c1c(-c2ccccc2)[nH]c2ccccc12)C(=O)c1ccccc1 | 11.1 µM | 86.9 µM | 5.22 µM | > 100 µM | 3.2 µM | 34 µM | 7.16 µM | > 100 µM | 7.4 µM | > 100 µM | 4.78 µM | > 100 µM | 3.6 µM | > 100 µM | 9.61 µM | > 100 µM |
| O=C(CCSc1ccnc2c(C(F)(F)F)cccc12)N/N=C/c1cc(Cl)c(Cl)cc1Cl | 33.6 µM | 72.4 µM | 18.2 µM | 40 µM | 20 µM | 46.1 µM | 19.7 µM | 35.5 µM | 17.8 µM | 31.8 µM | – | – | 15.4 µM | 39.7 µM | 20.9 µM | 52.3 µM |
| CN(C)CCCCn1ccc2c1C(=O)c1c(c(O)c3ccccc3c1O)C2=O | 0.501 µM | 7.73 µM | 20.1 µM | 41.9 µM | 15.8 µM | 35.8 µM | 14.8 µM | 27.9 µM | 10.4 µM | 24.2 µM | 2.78 µM | 8.7 µM | – | – | 2.18 µM | 8.91 µM |
| COc1cccc(N=N/C(=N\NC(=O)c2cc(Br)ccc2O)c2ccc(N(CCC#N)CCC#N)cc2OC)c1 | – | – | 87.2 µg/mL | > 150 µg/mL | 19.6 µg/mL | 69.5 µg/mL | 56.8 µg/mL | > 150 µg/mL | 15 µg/mL | 15 µg/mL | 57.3 µg/mL | > 150 µg/mL | 60.5 µg/mL | > 150 µg/mL | 70.4 µg/mL | > 150 µg/mL |
| FC(F)(F)c1cccc2c(SCCc3n[nH]c(=S)o3)ccnc12 | 66.6 µM | > 100 µM | 78.4 µM | > 100 µM | 36.3 µM | > 100 µM | 60.2 µM | > 100 µM | 67 µM | > 100 µM | – | – | 16.6 µM | 34 µM | 57 µM | > 100 µM |
